Source: EP0935963A2, “The use of MMP-13 selective inhibitors for the treatment of osteoarthritis and other matrix metalloproteinase-mediated disorders” (Pfizer Products Inc., priority 1997, dated 1999)
Read-outs that look alike come from different tables or passages of the source.

Key:
[1] = tested on: cartilage conditioned medium collagenase activity; test: Collagen film assay with cartilage conditioned medium as enzyme source; format: biochemical
Experimental: (§1) Rat type I collagen is radiolabeled with ^14C acetic anhydride (T.E. Cawston and A.J. Barrett, Anal. Biochem., 99, 340-345 (1979)) and used to prepare 96 well plates containing radiolabeled collagen films (Barbara Johnson-Wint, Anal. Biochem., 104, 175-181 (1980)). When a solution containing collagenase is added to the well, the enzyme cleaves the insoluble collagen which unwinds and is thus solubilized. Collagenase activity is directly proportional to the amount of collagen solubilized, determined by the proportion of radioactivity released into the supernatant as measured in a standard scintillation counter. Collagenase inhibitors are, therefore, compounds which reduce the radioactive counts released with respect to the controls with no inhibitor present. One specific embodiment of this assay is described in detail below.
(§2) Stock solutions of test compound (10mM) in dimethylsulfoxide are prepared. Dilutions of the test compounds in the Tris buffer, above, are made to 0.2, 2.0, 20, 200, 2000 and 20000 nM.
(§3) 100 µl of appropriate drug dilution and 100 µl of diluted enzyme are pipetted into wells of a 96 well plate containing collagen films labeled with ^14C-collagen. The final enzyme concentration is 0.3 µg/ml while the final drug concentration is 0.1, 1.0, 10, 100, 1000 nM. Each drug concentration and control is analyzed in triplicate. Triplicate controls are also run for the conditions in which no enzyme is present and for enzyme in the absence of any compound.
(§4) The plates are incubated at 37°C for a time period such that around 30 - 50% of the available collagen is solubilized - determined by counting additional control wells at various time points. In most cases around 9 hours of incubation are required. When the assay has progressed sufficiently, the supernatant from each well is removed and counted in a scintillation counter. The background counts (determined by the counts in the wells with no enzyme) are subtracted from each sample and the % release calculated in relation to the wells with enzyme only and no inhibitor. The triplicate values for each point are averaged and the data graphed as percent release versus drug concentration. IC50's are determined from the point at which 50% inhibition of release of radiolabeled collagen is obtained.
To determine the identity of the active collagenases in cartilage conditioned medium, assays were carried out using collagen as a substrate, cartilage conditioned medium containing collagenase activity and inhibtors of varying selectivity. The cartilage conditioned medium was collected during the time at which collagen degradation was occurring and thus is representative of the collagenases responsible for the collagen breakdown. Assays were carried out as outlined above except that instead of using recombinant MMP-13 or recombinant MMP-1, cartilage conditioned medium was the enzyme source. […]

[2] = tested on: bovine nasal cartilage explants; test: IL-1 Induced Cartilage Collagen Degradation From Bovine Nasal Cartilage (cartilage explant assay); format: cell-based; conditions: Bos taurus
Description: This assay uses bovine nasal cartilage explants which are commonly used to test the efficacy of various compounds to inhibit either IL-1 induced proteoglycan degradation or IL-1 induced collagen degradation. Bovine nasal cartilage is a tissue that is very similar to articular cartilage, i.e. chondrocytes surrounded by a matrix that is primarily type II collagen and aggrecan. The tissue is used because it: (1) is very similar to articular cartilage, (2) is readily available, (3) is relatively homogeneous, and (4) degrades with predictable kinetics after IL-1 stimulation.
Two variations of this assay have been used to assay compounds. Both variations give similar data. The two variations are described below:
Three plugs of bovine nasal cartilage (approximately 2 mm diameter x 1.5 mm long) are placed into each well of a 24 well tissue culture plate. One ml of serumless medium is then added to each well. Compounds are prepared as 10 mM stock solutions in DMSO and then diluted appropriately in serumless medium to final concentrations, e.g., 50, 500 and 5000 nM. Each concentration is assayed in triplicate.
Human recombinant IL-1α (5ng/mL) (IL-1) is added to triplicate control wells and to each well containing drug. Triplicate control wells are also set up in which neither drug nor IL-1 are added. The medium is removed and fresh medium containing IL-1 and the appropriate drug concentrations is added on days 6, 12, 18 and 24 or every 3 - 4 days if necessary. The media removed at each time point is stored at -20°C for later analysis. When the cartilage in the IL-1 alone wells has almost completely resorbed (about day 21), the experiment is terminated. The medium, is removed and stored. Aliquots (100 ul) from each well at each time point are pooled, digested with papain and then analyzed for hydroxyproline content. Background hydroxyproline (average of wells with no IL-1 and no drug) is subtracted from each data point and the average calculated for each triplicate. The data is then expressed as a percent of the IL-1 alone average value and plotted. The IC50 is determined from this plot.
The experimental set-up is the same as outlined above in Variation 1, until day 12. On day 12, the conditioned medium from each well is removed and frozen. Then one ml of phosphate buffered saline (PBS) containing 0.5 µg/ml trypsin is added to each well and incubation continued for a further 48 hours at 37°C. After 48 hours incubation in trypsin, the PBS solution is removed. Aliquots (50 µl) of the PBS/trypsin solution and the previous two time points (days 6 and 12) are pooled. hydrolyzed and hydroxyproline content determined. Background hydroxyproline (average of wells with no IL-1 and no drug) is subtracted from each data point and the average calculated for each triplicate. The data is then expressed as a percent of the IL-1 alone average value and plotted. The IC50 is determined from this plot. In this variation, the time course of the experiment is shortened considerably. The addition of trypsin for 48 hours after 12 days of IL-1 stimulation likely releases any type II collagen that has been damaged by collagenase activity but not yet released from the cartilage matrix. In the absence of IL-1 stimulation, trypsin treatment produces only low background levels of collagen degradation in the cartilage explants.

MMP-13 [3] = target: T1, MMP-13 (Homo sapiens, UniProt P45452); test: Inhibition of MMP-13, fluorescence assay; format: biochemical
Experimental: Human recombinant MMP-13 is activated with 2 mM APMA (p-aminophenyl mercuric acetate) for 1.5 hours, at 37°C and is then diluted to […] in assay buffer (50 mM Tris, pH 7.5, 200 mM sodium chloride, 5mM calcium chloride, 20µM zinc chloride, 0.02% Brij 35). Twenty-five microliters of diluted enzyme is added per well of a 96 well microfluor plate. The enzyme is then diluted in a 1:4 ratio in the assay by the addition of inhibitor and substrate to give a final concentration in the assay of 60 ng/ml.
Stock solutions (10 mM) of inhibitors are made up in dimethylsulfoxide and then diluted in assay buffer as per the inhibitor dilution scheme for inhibition of human collagenase-1. Twenty-five microliters of each concentration is added to triplicate wells of a microfluor plate. The final concentrations in the assay are 30 µM, 3 µM, 0.3 µM, and 0.03 µM.
Substrate (Dnp-Pro-Cha-Gly-Cys(Me)-His-Ala-Lys(NMA)-NH2) is prepared as for inhibition of human collagenase (MMP-1) and […] is added to each well to give a final assay concentration of 10 µM. Fluorescence readings (360 nm excitation; 450 nm emission) are taken at time 0 and every 5 minutes for 1 hour.
Positive controls and negative controls are set up in triplicate as outlined in the MMP-1 assay.
IC50's are determined as per inhibition of human collagenase (MMP-1). If IC50's are reported to be less than […], inhibitors are then assayed at final concentrations of 0.3 µM, 0.03 µM, 0.003 µM and 0.0003 µM.

MMP-13 [4] = target: T1, MMP-13; test: biochemical
Experimental: as §1, with “Collagenase activity is directly proportional to the amount of collagen solubilized, determined by the proportion of radioactivity released into the supernatant as measured in a standard scintillation counter.” left out
(§5) For determining the selectivity of compounds for MMP-13 versus MMP-1 using collagen as a substrate, the following procedure is used. Recombinant human proMMP-13 or proMMP-1 is activated according to the procedures outlined in Experiment 1. The activated MMP-13 or MMP-1 is diluted to 0.6 ug/ml with buffer ( 50 mM Tris pH 7.5, 150 mM NaCI, 10 mM CaCl2, 1 uM ZnCl2, 0.05% Brij-35, 0.02% sodium azide).
as §2, §3, §4

[5] = target: T2, Human recombinant collagenase-1 (Homo sapiens, UniProt P03956); test: Inhibition of Human Collagenase (MMP-1), fluorescence assay; format: biochemical
T2 sequence (P03956 100-469): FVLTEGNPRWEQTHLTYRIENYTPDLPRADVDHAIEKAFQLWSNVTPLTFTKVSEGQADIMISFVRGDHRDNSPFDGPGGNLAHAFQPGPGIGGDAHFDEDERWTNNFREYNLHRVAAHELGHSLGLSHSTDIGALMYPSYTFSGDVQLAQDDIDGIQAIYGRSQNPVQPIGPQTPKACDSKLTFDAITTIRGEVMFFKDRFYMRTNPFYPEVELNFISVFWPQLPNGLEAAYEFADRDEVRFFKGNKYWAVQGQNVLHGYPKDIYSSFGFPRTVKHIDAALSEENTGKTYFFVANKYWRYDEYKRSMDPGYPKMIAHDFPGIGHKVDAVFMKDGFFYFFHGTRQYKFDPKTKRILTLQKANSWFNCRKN
Experimental: Human recombinant collagenase-1 is activated with trypsin.
The final concentration of inhibitor will be a 1:4 dilution after addition of enzyme and substrate.
Final concentration of collagenase in the assay is 60 ng/ml.
Fluorescence versus time is then plotted for both the blank and collagenase containing samples (data from triplicate determinations is averaged). […] The zero time is used as a blank for each compound at each concentration and these values are subtracted from the 120 minute data.

MMP-1 = target: T3, MMP-1 (Homo sapiens, UniProt P03956); test: biochemical
T3 sequence (P03956 100-469): T2 sequence (P03956 100-469)
Experimental: as §1, with “Collagenase activity is directly proportional to the amount of collagen solubilized, determined by the proportion of radioactivity released into the supernatant as measured in a standard scintillation counter.” left out
as §5, §2, §3, §4

[6] = clinical trial data, Proceedings of ASCO, 15, 490 (1996); cited from earlier work
[7] = Table 2, collagen film substrate
[8] = Table 3 (repeated for comparison)
[9] = 504 h, Variation 1: IL-1 stimulation until about day 21, hydroxyproline content, read-out: Cartilage Explant Assay IC50 Variation 1
[10] = read-out: Average IC50 (variation 1 and 2), average of variation 1 and 2
[11] = Variation 2: 12 days IL-1, then trypsin 48 hours, hydroxyproline content, read-out: Cartilage Explant Assay IC50 Variation 2

Row | SMILES | inhibition of the cartilage conditioned medium collagenase activity (in words) [1] | IC50 [1, 7] | IC50 [1, 8] | IC50 [2, 9] | IC50 [2, 10] | IC50 [2, 11] | IC50 (MMP-13 [3]) | IC50 (MMP-13 [4]) | IC50 ([5]; fluorescent peptide substrate, read-out: MMP-1 Fluor. IC50) | IC50 (MMP-13 [3]; fluorescent peptide substrate, read-out: MMP-13 Fluor. IC50) | IC50 (MMP-1; Table 2, type I collagen film substrate, read-out: MMP-1 Type I Collagen IC50) | IC50 (MMP-13 [4]; Table 2, type I collagen film substrate, read-out: MMP-13 Type 1 Collagen IC50) | IC50 [5] | IC50 (MMP-1) | connective tissue side effects [6]
1 | CNC(=O)[C@H](Cc1ccc(OC)cc1)NC(=O)C(CC(=O)NO)CC(C)C (stereo partly drawn) [Example 1, reference compound] | potent inhibitor | 0.01 µM | 0.01 µM | 0.06 µM | 0.09 µM | 0.05 µM | 0.0015 µM | 0.0015 µM |  |  |  |  |  |  | 
2 | O=C(CN(Cc1cccnc1)S(=O)(=O)c1ccc(OCc2ccccc2)cc1)NO [Example 2] | potent inhibitors | 0.22 µM | 0.22 µM | 0.9 µM | 0.725 µM | 0.55 µM |  |  | 17.7 µM | 0.0054 µM | 22 µM | 0.052 µM |  |  | 
3 | CNC(=O)C(Cc1ccc(OC)cc1)NC(=O)C(CCCCOc1ccccc1)CP(=O)(O)Cc1ccc(Cc2ccccc2)cc1 (stereo not drawn) [Example 3] | potent inhibitors | 0.4 µM | 0.4 µM |  |  | 0.83 µM | 0.07 µM | 0.04 µM |  |  |  |  | 21.7 µM | 40 µM | 
4 | CNC(=O)[C@@H](NC(=O)[C@H](CC(C)C)[C@H](O)C(=O)NO)C(C)(C)C [marimastat] |  |  |  |  |  |  |  |  |  |  |  |  |  |  | significant dose-related connective tissue side effects
